Measurements from patent publication US7442855B2, “Insecticidal plant cyclotide with activity against Homopteran insects” (E. I. du Pont De Nemours and Company, priority 2004, dated 2008).
Where a SMILES comes first, the peptide text is derived from it. Bridges are numbered along the chain shown (N, C = ends).

Legend:
Peregrinus maidis = assay: Dose response insect-feeding assay for E5 against Peregrinus maidis (sucrose/parafilm membrane, mortality scored after 72 hours); type: in vivo; conditions: adult insects, two replicates
Experimental: (§1) To test for the insecticidal activity of cyclotide E5 against the target homopteran pests, the lyophilized fractionated samples were placed in 96-well microtiter plates, resuspended in H2O and added to a 20% sucrose solution as detailed below. Parafilm was stretched to just short of its breaking point and used to seal the sucrose/sample reservoir. Adult insects were then added on top of the membrane in a second chamber such that the base of the insect enclosure was the parafilm membrane. The top of the insect chamber was then sealed with plastic wrap and punctured for air exchange. The number of insects feeding from each well was determined. The assay was scored after 72 hours and nsecticidal activity was measured based on insect mortality.
(§2) Specifically, for the dose-response assay results shown in Tables 1 and 2, lyophilized RP-HPLC-pure sample was resuspended in 300 μL H2O and added to 20% sucrose in the following volumes: 60, 45, 25, 10, and 5 μL. Two replicates per dose were prepared, including two negative controls. After 72 hours, the wells were scored for insect mortality.

Aphis glycines = assay: Dose response insect-feeding assay for E5 against Aphis glycines (sucrose/parafilm membrane, mortality scored after 72 hours); type: in vivo; conditions: adult insects, two replicates
Experimental: as §1, §2

CC[C@H](C)[C@@H]1NC(=O)[C@H](Cc2ccc(O)cc2)NC(=O)[C@H](C(C)C)NC(=O)[C@@H]2CSSC[C@@H]3NC(=O)[C@H](CCCCN)NC(=O)[C@@H]4CSSC[C@H](NC(=O)[C@@H]5CCCN5C(=O)[C@H]([C@@H](C)CC)NC(=O)[C@H](CCCCN)NC(=O)[C@H](CC(N)=O)NC(=O)[C@H](Cc5ccc(O)cc5)NC(=O)[C@H](CSSC[C@H](NC(=O)CNC1=O)C(=O)N[C@@H]([C@@H](C)O)C(=O)N[C@@H](CC(C)C)C(=O)N[C@@H]([C@@H](C)O)C(=O)N[C@@H](C)C(=O)N[C@@H](CC(C)C)C(=O)N[C@@H](C)C(=O)NCC(=O)N4)NC(=O)[C@H](C(C)C)NC(=O)[C@H](CCCCN)NC(=O)[C@H](CC(N)=O)NC(=O)[C@H](CCCCN)NC3=O)C(=O)NCC(=O)N[C@@H](CCC(=O)O)C(=O)N[C@@H](CO)C(=O)N2 [E5] (cyclo(AGCKCKNKVCYNKIPCGESCVYIGCTLTAL); disulfide 3-16, 5-20, 10-25 (inferred); ring closure inferred)
average percent (%) insect mortality (Peregrinus maidis; E5 concentration 2.73 μM (5 μL)): 90% | average percent (%) insect mortality (Peregrinus maidis; E5 concentration 4.09 μM (10 μL)): 90% | average percent (%) insect mortality (Peregrinus maidis; E5 concentration 9.97 μM (25 μL)): 95% | average percent (%) insect mortality (Peregrinus maidis; E5 concentration 16.61 μM (45 μL)): 100% | average percent (%) insect mortality (Peregrinus maidis; E5 concentration 33.22 μM (60 μL)): 100% | average percent (%) insect mortality (Aphis glycines; E5 concentration 6.36 μM (5 μL)): 56.5% | average percent (%) insect mortality (Aphis glycines; E5 concentration 12.73 μM (10 μL)): 80% | average percent (%) insect mortality (Aphis glycines; E5 concentration 31.81 μM (25 μL)): 75% | average percent (%) insect mortality (Aphis glycines; E5 concentration 57.26 μM (45 μL)): 95% | average percent (%) insect mortality (Aphis glycines; E5 concentration 76.35 μM (60 μL)): 100%
